Experimental data as given in publication PMC12040169 (PLOS Biology, 2025).

Test: in vitro
Details: human, hela cells, % viability

Compound	viability at 28.5 h, 10 µM [%]
CCc1nc2c(OCCOc3ccc(F)cc3)cccn2c1N(C)C(=O)c1ccncc1 [CBK147472]	93.6
c1csc(-c2nccnc2NCCc2ccncc2)c1 [CBK036764]	108
CC(C)c1cccc(C(C)C)c1OCCNCCO [CBK262750]	89.3
Nc1ncc(-c2ccoc2)nc1NCc1ccncc1 [CBK063656]	95.1
CCCOc1ccc(-c2cn(CC(=O)NN)cn2)cc1 [CBK261790]	106
O=C(c1ccno1)N1C[C@@H]2OCC(=O)N(CC3CC3)[C@@H]2C1 [CBK289680]	83.5
CC1CCCC(C)N1CC(O)COc1ccc(/N=C/c2ccccc2O)cc1 (stereo not drawn) [CBK261748]	89.6
COc1ccc(CCNC(=O)N2CCCCC2CO)cc1 (stereo not drawn) [CBK156188]	92.8
O=C(NCC1COc2ccccc2O1)c1ccc(-c2ccccc2)nc1NCCc1ccccn1 (stereo not drawn) [CBK076554]	95.9
C[C@]12CN(CCc3ccccc3)C[C@H]1NC(=O)c1ccccc1C2=O [CBK284704]	90.3
CC(C)c1cccc2c1OC(C(C)C)C(=O)N2 (stereo not drawn) [CBK009286]	85.2
C=C(C)Cn1c(Cc2ccccc2)nnc1SCC(C)C [CBK200082]	102
O=C(O)C(Cc1c[nH]c2ccccc12)N1Cc2ccccc2C1=O (stereo not drawn) [CBK287056]	82
O=C(c1ccc(F)cc1)N1CCN(c2ccccn2)CC1 [CBK287795]	104
OCc1ccc(-c2cncc(-c3ccc(O)cc3)n2)cc1 [CBK123792]	91.4
COC(=O)c1ccccc1NC(=O)c1c(C)c(-c2ccc(C)cc2)nc2ccccc12 [CBK263641]	94.9
CCOc1cc(C(=S)N2CCCCC2)ccc1OC(=O)c1ccccc1Cl [CBK019660]	98.9
Cc1nccn1CCC1CCN(C(=O)CC2CCCCO2)CC1 (stereo not drawn) [CBK281974]	84.3

Compound	viability at 28.5 h, 10 µM [%]
COc1ccccc1-c1cc(Nc2ccc(N3CCOCC3)cc2)ncn1 [CBK090933]	83.7
O=C(COc1ccc(S(=O)(=O)Nc2ccc(Cl)cc2)cc1)Nc1ccccc1F [CBK268427]	108
CN1CCC(N(C)C(=O)NCCCN2CCCC2=O)C1 (stereo not drawn) [CBK156021]	92.3
O=[N+]([O-])c1cc(S(=O)(=O)Nc2ccc3cn[nH]c3c2)ccc1Cl [CBK067160]	91.1
Cc1nc(CC(=O)N2CCCC(c3cccc(Cc4ccc(Cl)cc4)n3)C2)cs1 (stereo not drawn) [CBK286505]	94.3
Cc1cnc(CNS(=O)(=O)c2ccc(C(C)C)cc2)cn1 [CBK044615]	118
CCOC(=O)CSc1nc2cc(Cl)c(Cl)cc2nc1NC(C)C [CBK107173]	97.1
CCc1nn(CC(=O)NC(C)(C)C)c(=O)c2cc3sccc3n12 [CBK284056]	73.8
CCC(=O)Nc1nnc(-c2ccc3c(c2)OCCO3)o1 [CBK287404]	92.6
CCN(CC(=O)NCc1ccc(Cl)cc1)S(=O)(=O)N1CCCCCC1 [CBK305733]	110
Cc1ccc(Cn2c(OCCN(C)C)nc3c2c(=O)n(C)c(=O)n3C)cc1 [CBK134241]	89.3
COc1ccccc1NC(=O)COc1cccc(Cl)c1Cl [CBK266029]	106
Cc1cccc(-c2ncc(NC(=O)c3ccccn3)nc2-c2ccc(N)cc2)c1 [CBK036694]	93.3
Cn1c(SCC(=O)Nc2ccc(Oc3ccc(Cl)cc3)cc2)nnc1-c1ccncc1 [CBK269654]	95.6
CC(C)(C)OC(=O)N1CCC(C(Cc2ccc(-c3ccc(S(C)(=O)=O)cc3)cc2)C(=O)NCCOCCO)CC1 (stereo not drawn) [CBK173128]	83.7
COCCCNC(=O)c1cnn2c(C)c(Cc3ccccc3)c(C)nc12 [CBK162216]	94.6
O=C(c1ccccc1)N1CCN(C(=O)c2ccco2)CC1 [CBK068314]	96.6
O=C(NCc1cccc(C(F)(F)F)c1)N1CCN(c2ccc(F)cc2)CC1 [CBK156390]	89.4
